# Assay results from a melting point compilation (Tetko et al.).
row,Structure (SMILES),melting point
1,O=C(O)CNC(=O)C=Cc1cccnc1,264 to 266 °C
2,Cc1cc(NC(=O)OC(C)(C)C)ccn1,167 to 169 °C
3,Nc1cc(Cl)c(OC(F)F)c(Cl)c1,82 to 84 °C
4,CN(C)C(N)=NC(=N)N,223 to 226 °C
5,Cc1cnoc1N,59 to 61 °C
6,O=C(CCl)NC(=O)NC1CCS(=O)(=O)C1 (centres undefined),173 to 175 °C
7,CCS(=O)(=O)N(C)CC(=O)O,70 to 72 °C
8,CC(=O)CCc1ccc(OCCC(=O)O)cc1,102 to 104 °C
9,CC(C)(C)OC(=O)N1CCCc2ccc(N)cc21,90 to 92 °C
10,Cc1nc(Cl)c(Cl)nc1C,77 to 79 °C
11,Nc1ccccc1N1CCC(O)CC1,117 to 119 °C
12,COc1cc(C(=O)O)cc(Cl)c1OCC(N)=O,211 to 213 °C
13,COc1ccc([N+](=O)[O-])cc1S(=O)(=O)Cl,85 to 87 °C
14,Nc1cc(C2CCOCC2)no1,159 to 161 °C
15,NS(=O)(=O)c1c[nH]c(=O)[nH]c1=O,299 to 301 °C
16,CCOC(=O)C(C#N)C1C(=O)N(C)c2ccccc21 (centres undefined),119 to 121 °C
17,CCN(CC)S(=O)(=O)c1cc(NC(=O)CCl)ccc1C,70 to 72 °C
18,COc1cc(C(=O)O)cc(NC(C)=O)c1OC,229 to 231 °C
19,COc1ncc(F)c(O)n1,195 to 197 °C
20,Cc1cccc(C(=O)NO)c1O,139 to 141 °C
21,CC1(C)NC(=O)N(CCCC(=O)O)C1=O,97 to 99 °C
22,NC(CCN1CCCCC1)=NO,137 to 139 °C
23,NS(=O)(=O)CCCC(F)(F)F,66 to 68 °C
24,COc1ccc(OC)c(C=NO)c1,94 to 96 °C
25,Cc1nnc(Br)s1,106 to 108 °C
26,O=[N+]([O-])c1ccc(CCl)c(Cl)c1,50 to 52 °C

row,Structure (SMILES),melting point
1,O=C(O)c1sc(Cl)nc1Cl,164 to 166 °C
2,CC(C)NC(=O)c1ccc(Cl)c(N)c1,131 to 133 °C
3,Cc1ccc(N)cc1OCC1CCOCC1,114 to 116 °C
4,COc1ncncc1N,71 to 73 °C
5,O=C(O)CCCc1ccc(Cl)c(Cl)c1,69 to 71 °C
6,Cc1cccc(OCCNC(=O)C(C)Cl)c1 (centres undefined),57 to 59 °C
7,COc1ccc(CBr)cc1C#N,119 to 121 °C
8,O=C1CCCC(C(F)(F)F)N1 (centres undefined),123 to 125 °C
9,Cc1ccc(S(=O)(=O)NCC2CCCO2)cc1C(=O)O (centres undefined),160 to 162 °C
10,CC(Cl)c1nnc(-c2ccc(Cl)cc2Cl)o1 (centres undefined),55 to 57 °C
11,Nc1cccc(N2C(=O)CC3(CCCC3)C2=O)c1,136 to 138 °C
12,COc1cc(C(=O)O)ccc1OC(C)C,140 to 142 °C
13,N#Cc1ccc(NC(=O)CCCCl)cc1,114 to 116 °C
14,COCCNc1nc(Cl)nc(Cl)n1,71 to 73 °C
15,CCc1ccc(C(=O)O)cc1S(=O)(=O)N1CCOCC1,159 to 161 °C
16,N#Cc1cccc(NN)c1,104 to 106 °C
17,O=C(O)CCn1cc[nH]c(=O)c1=O,239 to 241 °C
18,CS(=O)(=O)c1ccc(NC(N)=O)cc1,224 to 226 °C
19,CNc1cc(Cl)nc(C)n1,143 to 145 °C
20,CC(=O)Nc1ccc(N)c(Cl)c1,113 to 115 °C
21,CCCc1c(C(=O)O)cnn1C1CCCC1,113 to 115 °C
22,Cc1cc(C(=O)O)c(C)n1-c1ccccc1,213 to 215 °C
23,Cc1cc(C=O)c(C)n1CC#N,122 to 124 °C
24,NS(=O)(=O)c1cc([N+](=O)[O-])ccc1Cl,155 to 157 °C
25,Cc1cc(C)cc(N2CCC(C(=O)O)C2=O)c1 (centres undefined),115 to 117 °C
26,CC(=O)CC(=O)c1cccc(Cl)c1,39 to 41 °C

row,Structure (SMILES),melting point
1,CC(C)(C)OC(=O)N1CC(=O)NC(=O)C1,129 to 131 °C
2,Cc1ccc(S(=O)(=O)N(C)C)cc1NC(=S)NN,191 to 193 °C
3,CC1CCC(C(C)C)C(NC(=O)c2ccnc(F)c2)C1 (centres undefined),79 to 81 °C
4,O=C(O)c1cc(S(=O)(=O)Cl)c(Cl)cc1Cl,158 to 162 °C
5,Cc1cccc([N+](=O)[O-])c1C(N)=O,158 to 160 °C
6,COC(=O)c1ccc(S(N)(=O)=O)s1,150 to 152 °C
7,O=C(O)c1ccc(F)c(S(=O)(=O)NC2CC2)c1,226 to 228 °C
8,NC(=O)CNS(=O)(=O)c1ccc(F)c(C(=O)O)c1,201 to 203 °C
9,CC(=O)C(C#N)c1c(Cl)cccc1Cl (centres undefined),49 to 51 °C
10,CC(C)(C)OC(=O)N1CCc2[nH]c(=O)c(S(C)(=O)=O)cc2C1,229 to 231 °C
11,CC(=O)N1CCN(C(=O)CCC(=O)O)CC1,110 to 116 °C
12,O=C(O)C1CC1(Cl)Cl (centres undefined),74 to 76 °C
13,O=S(=O)(c1ccc2c(c1)CCC2)N1CCNCC1,90 to 92 °C
14,NCC1(C(N)=O)CCOCC1,113 to 115 °C
15,CCNc1ccc(S(=O)(=O)N2CCOCC2)cc1N,188 to 190 °C
16,OCc1ncc(Br)s1,73 to 75 °C
17,O=C(O)C(NCc1ccccc1)C1CC1 (centres undefined),228 to 230 °C
18,O=C(O)CCCc1nnc(-c2ccccc2I)o1,69 to 71 °C
19,Cc1cc(C(=O)CCl)c(C)n1-c1ccccn1,76 to 78 °C
20,Nc1ccc2c(c1)C(=O)CCC2,126 to 128 °C
21,CCc1c(C(C)=O)oc2ccccc12,33 to 35 °C
22,Cc1cc(Cl)c(S(=O)(=O)Cl)cc1[N+](=O)[O-],129 to 131 °C
23,CCOC(=O)c1ncsc1NC,92 to 94 °C
24,O=C(Nc1ccco1)OCC(F)(F)F,78 to 80 °C
25,CS(=O)(=O)c1cc(C(=O)O)c(Cl)cc1Cl,210 to 212 °C

# The next lines start with the values.
row,melting point,Structure (SMILES)
1,120 to 122 °C,COC(=O)Cc1ccc(Oc2ccnc(C#N)c2)cc1
2,188 to 190 °C,Nn1c(S)nnc1-c1ccccc1Br
3,144 to 146 °C,O=[N+]([O-])c1ccc(Oc2ccc([N+](=O)[O-])cc2)cc1
4,242 to 244 °C,O=C(O)c1ccc2noc(-c3ccccc3)c2c1
5,250 to 252 °C,O=C(O)c1cc2ccc(-c3ccccc3)cc2[nH]1
6,140 to 142 °C,Cc1nc2c3ccccc3nc(Cl)n2n1
7,51 to 53 °C,O=C(O)CCCOc1cccc(F)c1
8,163 to 165 °C,O=C(O)C1CCCN1C(=O)Nc1ccc(F)cc1 (centres undefined)
9,89 to 91 °C,COc1ccc(CNS(C)(=O)=O)cc1
10,72 to 74 °C,COC(=O)c1cc([N+](=O)[O-])c(Br)cc1F
11,257 to 259 °C,O=c1cc(-c2ccccc2)c2cc(Cl)ccc2[nH]1
12,151 to 153 °C,CC1(c2ccc(OC(F)(F)F)cc2)NC(=O)NC1=O (centres undefined)
13,236 to 238 °C,NS(=O)(=O)c1cc(C(=O)O)ccc1F
14,299 to 301 °C,Oc1ncnc2c(F)cc(Br)cc12
15,51 to 53 °C,Cc1ccc(F)c(-n2nnnc2CCl)c1
16,239 to 241 °C,Cc1noc2nc(-c3cccc(Cl)c3)cc(C(=O)O)c12
17,177 to 179 °C,NC(=S)COc1ccccc1-c1ccccc1
18,49 to 51 °C,COc1ccc(C2CCCCC(O)C2)cc1 (centres undefined)
19,60 to 62 °C,CC(N)c1ccc(S(C)(=O)=O)c(F)c1 (centres undefined)
20,79 to 81 °C,Cc1ccc(C)c(N2C(=O)C=CC2=O)c1
21,132 to 134 °C,CC(N)c1ccc(NC(N)=O)cc1 (centres undefined)
22,143 to 145 °C,CCOc1ccc(Br)cc1S(N)(=O)=O
23,217 to 219 °C,O=C(CCl)Nc1ccc2[nH]c(C(F)(F)F)nc2c1

row,melting point,Structure (SMILES)
1,210 to 212 °C,COC(=O)c1ccc2c(=O)[nH]c(CCl)nc2c1
2,110 to 112 °C,Cn1c(C(N)c2ccccc2)nc2ccccc21 (centres undefined)
3,133 to 135 °C,CC(=O)c1ccc(-c2ccc(C=O)o2)cc1
4,70 to 72 °C,Cc1cc(Cl)nc(-c2ccccn2)n1
5,292 to 294 °C,Sc1nnc(-c2ccccc2)n1-c1ccccc1
6,97 to 99 °C,Nc1cccc(CS(=O)(=O)c2ccc(F)cc2F)c1
7,124 to 126 °C,Fc1ccc(OCc2ccc3ccccc3n2)c(Br)c1
8,136 to 138 °C,O=C(O)c1noc(-c2cc(F)cc(F)c2)n1
9,141 to 143 °C,COc1ccc2c(c1)CCC(=O)N2
10,139 to 141 °C,CNc1nc(-c2ccccc2[N+](=O)[O-])cs1
11,156 to 158 °C,COc1cccc(-c2nc(CC(=O)O)cs2)c1OC
12,182 to 184 °C,O=C(O)c1conc1-c1ccc(Cl)cc1
13,45 to 55 °C,Cc1cc(C)n(-c2ccc(CC#N)cc2)n1
14,175 to 177 °C,O=S1(=O)Nc2cccc3cccc1c23
15,102 to 104 °C,Nc1nc(-c2ccccc2F)cs1
16,77 to 79 °C,Fc1cccc2cc(I)cnc12
17,64 to 66 °C,CC(C)c1ccc(C=NO)cc1
18,229 to 231 °C,Cc1nn(-c2ccc(Br)cc2)cc1C(=O)O
19,103 to 105 °C,OC(O)c1nc(-c2ccccc2)no1
20,189 to 191 °C,Nc1n[nH]c2c(Cl)cccc12
21,115 to 117 °C,Fc1ccc(NC2CCOCC2)nc1
22,71 to 73 °C,Cc1ccccc1CNc1ccccc1N
23,199 to 201 °C,O=C(O)c1ccc(=O)n(-c2ccccc2F)n1

row,melting point,Structure (SMILES)
1,155 to 157 °C,Clc1cc2nnc(-c3ccccc3)n2cn1
2,136 to 138 °C,Cn1ccnc1Sc1ccc(F)cc1N
3,200 to 202 °C,O=C(c1ccc(O)cc1)N1CCc2sccc2C1
4,139 to 141 °C,N#CCc1c[nH]c2ncccc12
5,144 to 146 °C,O=C(O)c1ccc(F)cc1I
6,139 to 141 °C,O=C(O)Cc1ccc(S(=O)(=O)C(F)F)cc1
7,134 to 136 °C,Nc1cccc(NC(=O)c2cccc(C(F)(F)F)c2)c1
8,124 to 126 °C,NC(=O)COc1ccc(N)cc1
9,161 to 163 °C,NC(=O)c1ccn(-c2ccccc2N)n1
10,42 to 44 °C,CC(=O)c1ccc(OC(C)C)cc1
11,242 to 244 °C,NNC(=O)CSc1nnc(-c2ccccc2)n1-c1ccccc1
12,114 to 116 °C,CC(C)OCc1ccc(C(=O)O)cc1
13,135 to 137 °C,Oc1cccc(-c2nccc(Cl)n2)c1
14,144 to 146 °C,O=C1NCCc2ccc(Br)cc21
15,107 to 109 °C,COc1ccccc1NC(=O)C(Br)C(C)C (centres undefined)
16,332 to 334 °C,O=c1[nH]c2cc(F)c(F)cc2[nH]1
17,133 to 135 °C,COc1ccc2cc(CCl)c(Cl)nc2c1
18,99 to 101 °C,N#CCc1ccc(OCc2ccc(Cl)nc2)cc1
19,141 to 143 °C,Fc1ccc(-c2n[nH]cc2Br)cc1
20,128 to 130 °C,CC(=O)Nc1ccc(C(=O)CCl)c(F)c1
21,187 to 189 °C,NC(=NO)c1ccc([N+](=O)[O-])cc1
